The experiment deals with T1, STAT6 (endogenous, HiBiT-tagged) in HeLa LgBiT clone 4.14 cells (Homo sapiens, UniProt P42226).
T1 construct: These cells express endogenous STAT6; host or cells: HeLa LgBiT clone 4.14
T1 sequence (P42226 1-847): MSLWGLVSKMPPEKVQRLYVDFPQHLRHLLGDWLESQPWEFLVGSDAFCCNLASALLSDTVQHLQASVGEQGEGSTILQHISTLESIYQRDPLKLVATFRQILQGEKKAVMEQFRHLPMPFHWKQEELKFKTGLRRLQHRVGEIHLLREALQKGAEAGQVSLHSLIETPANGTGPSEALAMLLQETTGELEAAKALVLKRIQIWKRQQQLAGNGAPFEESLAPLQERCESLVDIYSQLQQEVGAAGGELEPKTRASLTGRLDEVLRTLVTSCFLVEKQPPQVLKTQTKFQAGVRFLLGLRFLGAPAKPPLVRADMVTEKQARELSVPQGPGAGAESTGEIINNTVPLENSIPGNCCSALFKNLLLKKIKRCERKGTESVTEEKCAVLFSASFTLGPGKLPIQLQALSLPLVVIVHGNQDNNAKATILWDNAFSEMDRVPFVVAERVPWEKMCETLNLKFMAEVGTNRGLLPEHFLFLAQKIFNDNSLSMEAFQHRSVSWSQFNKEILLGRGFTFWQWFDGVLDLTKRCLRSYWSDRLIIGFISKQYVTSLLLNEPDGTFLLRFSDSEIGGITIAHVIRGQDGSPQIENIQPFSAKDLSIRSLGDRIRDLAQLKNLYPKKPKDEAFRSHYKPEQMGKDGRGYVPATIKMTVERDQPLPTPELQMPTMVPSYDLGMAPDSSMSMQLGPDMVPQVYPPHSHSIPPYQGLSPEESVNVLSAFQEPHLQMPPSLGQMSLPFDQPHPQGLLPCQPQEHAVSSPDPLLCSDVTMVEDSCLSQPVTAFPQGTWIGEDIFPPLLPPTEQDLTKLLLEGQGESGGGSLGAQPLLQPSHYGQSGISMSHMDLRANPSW
In words: STAT6 Degrader Assay (HiBiT based, HeLa LgBiT clone 4.14 cells, luminescence, DC50). It counts as cell-based. The settings on record: geometric mean; for Emax: Emax provided for test compounds with <80% Emax (and 2c15), read-out: STAT6 degradation Emax; for DC50: DC50 provided for test compounds with >80% Emax, read-out: STAT6 degradation DC50. Here is the method: This was a HiBit based assay. A HeLa cell line stably transfected with a small protein, LgBit (Large Bit) was obtained from Promega. These cells express endogenous STAT6. A small 11 amino acid gene sequence (HiBiT) was inserted in the STAT6 gene using CRISPR technology. Once STAT6 protein is expressed in the cells, the HiBiT sequence will bind the LgBit in the cells resulting in a functional NanoBiT protein, giving a luminescent tag to STAT6. Single cell clones were prepared and the clone 4.14 was selected for the assay based on that clone showing high luminescence, high STAT6 phosphorylation upon stimulation with IL-4, and inhibition of luminescence when cells were treated with STAT6 siRNA. HeLa LgBiT clone 4.14 cells were suspended in DMEM with 10% FCS, 1% Pen/Strep, Na-pyrovate and Hygromycin B, at a concentration of […]. 5000 cells were added pr well of a 384 well plate and 20 nL of compound was added by Echo® liquid handler. NN6394A (terfenadine, a toxic compound) was added to control wells at 50 µM concentration to establish the assay window. In these wells the cells are dead which equals 100% degradation of STAT6. After 4-24 h of incubation at 37° C. under 5% CO2/95% air, […] substrate (Nano-GLO®) was added to the wells and the plates were centrifuged and incubated for 0.5 h. The luminescence in the wells as a measure of non-degraded STAT6 was measured in a plate reader (BMG Pherastar FSX). The dose-response curves for Examples 2a2, 2t1, 2 h3, and 2r1 are shown below (where percent degradation is plotted vs. test compound concentration in M on a log-scale).
A general note: With HiBiT, luminescence reflects the tagged protein that the partner subunit can reach.

Where only a bound is given, the exact number is not on record here.

As for `Cc1nc(N)ccc1-c1ccnc2c1cc(CN1CCC(c3ccc(C(=O)N4CCC(CN5CCN(c6ccc(NC7CCC(=O)NC7=O)cc6F)CC5)CC4)cc3)CC1)n2C` (centres unmarked) [Example 2c7, 3-((4-(4-((1-(4-(1-((4-(6-amino-2-methylpyridin-3-yl)-1-methyl-1H-pyrrolo[2,3-b]pyridin-2-yl)methyl)piperidin-4-yl)benzoyl)piperidin-4-yl)methyl)piperazin-1-yl)-3-fluorophenyl)amino)piperidine-2,6-dione], the Emax (as a rule, the greatest response seen or fitted, relative to the assay's reference) was in the range of 30 to 40%.

For `Cn1c(CN2CCC(c3ccc(C(=O)N4CCC(CN5CCN(c6ccc(NC7CCC(=O)NC7=O)cc6)CC5)CC4)cc3)CC2)cc2c(-c3ccc4[nH]ncc4c3)ccnc21` (centres unmarked) [Example 2b1, 3-((4-(4-((1-(4-(1-((4-(1H-indazol-5-yl)-1-methyl-1H-pyrrolo[2,3-b]pyridin-2-yl)methyl)piperidin-4-yl)benzoyl)piperidin-4-yl)methyl)piperazin-1-yl)phenyl)amino)piperidine-2,6-dione], the DC50 – broadly, the concentration at which degradation of the target reaches its halfway point – is 19.2 nM. As to `Cn1c(CN2CCC(c3ccc(C(=O)N4CCC(CN5CCN(C(=O)c6ccccc6NC6CCC(=O)NC6=O)CC5)CC4)cc3)CC2)cc2c(-c3ccc4[nH]ncc4c3)ccnc21` (centres unmarked) [Example 2t2, 3-((2-(4-((1-(4-(1-((4-(1H-indazol-5-yl)-1-methyl-1H-pyrrolo[2,3-b]pyridin-2-yl)methyl)-piperidin-4-yl)benzoyl)piperidin-4-yl)methyl)piperazine-1-carbonyl)phenyl)amino)piperidine-2,6-dione], the maximum response (Emax) is less than 20%. Regarding `Cn1c(CN2CCC(c3ccc(C(=O)N4CCC(CN5CCN(c6ccc(NC7CCC(=O)NC7=O)c(F)n6)CC5)CC4)cc3)CC2)cc2c(-c3ccc4[nH]ncc4c3)ccnc21` (centres unmarked) [Example 2n2, 3-((6-(4-((1-(4-(1-((4-(1H-indazol-5-yl)-1-methyl-1H-pyrrolo[2,3-b]pyridin-2-yl)methyl)-piperidin-4-yl)benzoyl)piperidin-4-yl)methyl)piperazin-1-yl)-2-fluoropyridin-3-yl)amino)piperidine-2,6-dione], the DC50 turned out to be 28.6 nM. Regarding `C[C@@H](c1cc2c(-c3ccc(N)nc3)ccnc2n1C)N1CCC(c2ccc(C(=O)N3CCC(CN4CCN(c5ccc(NC6CCC(=O)NC6=O)cc5C#N)CC4)CC3)cc2)CC1` (stereo partly drawn) [Example 2i3, 2-(4-((1-(4-(1-((S)-1-(4-(6-aminopyridin-3-yl)-1-methyl-1H-pyrrolo[2,3-b]pyridin-2-yl)-ethyl)-piperidin-4-yl)benzoyl)piperidin-4-yl)methyl)piperazin-1-yl)-5-((2,6-dioxopiperidin-3-yl)amino)-benzonitrile], the maximal response (Emax) was in the range of 30 to 40%. For the molecule `CC(c1cc2c(-c3ccc(N)nc3)ccnc2n1C)N1CCC(c2ccc(C(=O)N3CCC(CN4CCN(c5ccc(NC6CCC(=O)NC6=O)cc5F)CC4)CC3)cc2)CC1` (centres unmarked) [Example 2c10, 3-((4-(4-((1-(4-(1-(1-(4-(6-aminopyridin-3-yl)-1-methyl-1H-pyrrolo[2,3-b]pyridin-2-yl)-ethyl)-piperidin-4-yl)benzoyl)piperidin-4-yl)methyl)piperazin-1-yl)-3-fluorophenyl)amino)piperidine-2,6-dione], the DC50 is 14.1 nM. Turning to `Cn1c(CN2CCC(c3ccc(C(=O)N4CCC(OCC#Cc5cccc(NC6CCC(=O)NC6=O)c5)CC4)cc3)CC2)cc2c(-c3ccc4[nH]ncc4c3)ccnc21` (centres unmarked) [Example 2t5, 3-((3-(3-((1-(4-(1-((4-(1H-indazol-5-yl)-1-methyl-1H-pyrrolo[2,3-b]pyridin-2-yl)methyl)-piperidin-4-yl)benzoyl)piperidin-4-yl)oxy)prop-1-yn-1-yl)phenyl)amino)-piperidine-2,6-dione], the Emax was in the range of 30 to 40%. As to `COCc1nc2cc(-c3ccnc4c3cc(CN3CCC(c5ccc(C(=O)N6CCC(CN7CCN(c8ncc(NC9CCC(=O)NC9=O)cc8F)CC7)CC6)cc5)CC3)n4C)ccc2[nH]1` (centres unmarked) [Example 2n6, 3-((5-fluoro-6-(4-((1-(4-(1-((4-(2-(methoxymethyl)-1H-benzo[d]imidazol-5-yl)-1-methyl-1H-pyrrolo[2,3-b]pyridin-2-yl)methyl)piperidin-4-yl)benzoyl)piperidin-4-yl)methyl)piperazin-1-yl)pyridin-3-yl)amino)piperidine-2,6-dione], the half-maximal degradation concentration (DC50) came out at 11.7 nM. For the molecule `CN(C(=O)c1ccc(C2CCN(Cc3cc4c(-c5ccc6[nH]ncc6c5)ccnc4n3C)CC2)cc1)c1ccc(CC2CCN(c3ccc(NC4CCC(=O)NC4=O)cc3)CC2)cc1` (centres unmarked) [Example 2o2, 4-(1-((4-(1H-indazol-5-yl)-1-methyl-1H-pyrrolo[2,3-b]pyridin-2-yl)methyl)-piperidin-4-yl)-N-(4-((1-(4-((2,6-dioxopiperidin-3-yl)amino)phenyl)piperidin-4-yl)methyl)-phenyl)-N-methylbenzamide], the maximum response (Emax) was in the range of 60 to 70%. With `COCc1nc2cc(-c3ccnc4c3cc([C@H](C)N3CCC(c5ccc(C(=O)N6CCC(CN7CCN(c8ccc(NC9CCC(=O)NC9=O)cc8Cl)CC7)CC6)cc5)CC3)n4C)ccc2[nH]1` (stereo partly drawn) [Example 2i4, 3-((3-chloro-4-(4-((1-(4-(1-((S)-1-(4-(2-(methoxymethyl)-1H-benzo[d]imidazol-5-yl)-1-methyl-1H-pyrrolo[2,3-b]pyridin-2-yl)ethyl)piperidin-4-yl)benzoyl)piperidin-4-yl)methyl)piperazin-1-yl)phenyl)amino)piperidine-2,6-dione], the DC50 turned out to be 7.6 nM. As to `COc1cc(N2CCN(CC3CCN(C(=O)c4ccc(C5CCN(Cc6cc7c(-c8ccc9[nH]ncc9c8)ccnc7n6C)CC5)cc4)CC3)CC2)c(F)cc1NC1CCC(=O)NC1=O` (centres unmarked) [Example 2i1, 3-((4-(4-((1-(4-(1-((4-(1H-indazol-5-yl)-1-methyl-1H-pyrrolo[2,3-b]pyridin-2-yl)methyl)-piperidin-4-yl)benzoyl)piperidin-4-yl)methyl)piperazin-1-yl)-5-fluoro-2-methoxyphenyl)amino)-piperidine-2,6-dione], the Emax was in the range of 40 to 50%. For `C[C@@H](c1cc2c(-c3ccc(N)nc3)ccnc2n1C)N1CCC(c2ccc(C(=O)N3CCC(CN4CCN(c5ccc(NC6CCC(=O)NC6=O)cc5Cl)CC4)CC3)cc2)CC1` (stereo partly drawn) [Example 2i6, 3-((4-(4-((1-(4-(1-((S)-1-(4-(6-aminopyridin-3-yl)-1-methyl-1H-pyrrolo[2,3-b]pyridin-2-yl)-ethyl)piperidin-4-yl)benzoyl)piperidin-4-yl)methyl)piperazin-1-yl)-3-chlorophenyl)amino)piperidine-2,6-dione], the Emax is 70 to 80%. As to `Cn1c(CN2CCC(c3ccc(C(=O)N4CCC(CN5CCN(c6ccc(NC7CCC(=O)NC7=O)cc6F)CC5)CC4)cc3)CC2)cc2c(-c3ccc(N)nc3)ccnc21` (centres unmarked) [Example 2c2, 3-((4-(4-((1-(4-(1-((4-(6-aminopyridin-3-yl)-1-methyl-1H-pyrrolo[2,3-b]pyridin-2-yl)methyl)-piperidin-4-yl)benzoyl)piperidin-4-yl)methyl)piperazin-1-yl)-3-fluorophenyl)amino)piperidine-2,6-dione], the Emax was in the range of 50 to 60%. As to `COCc1nc2cc(-c3ccnc4c3cc(CN3CCC(c5ccc(C(=O)N6CCC(CN7CCC(N8CCC(c9ccc(NC%10CCC(=O)NC%10=O)cc9F)CC8)C(F)(F)C7)CC6)cc5)CC3)n4C)ccc2[nH]1` (centres unmarked) [Example 2h3, 3-((4-(3′, 3′-difluoro-1′-((1-(4-(1-((4-(2-(methoxymethyl)-1H-benzo[d]imidazol-5-yl)-1-methyl-1H-pyrrolo[2,3-b]pyridin-2-yl)methyl)piperidin-4-yl)benzoyl)piperidin-4-yl)methyl)-[1,4′-bipiperidin]-4-yl)-3-fluorophenyl)amino)piperidine-2,6-dione], the DC50 was found to be 54.8 nM.
